# From patent US10028961B2, “Therapeutically active compounds and their methods of use” (AGIOS PHARMACEUTICALS, INC., priority 2013, dated 2018)
# Read-outs that look alike come from different tables or passages of the source.
# Experiments:
# [1] = target: IDH1 wt/IDH1 R132H heterodimer (Homo sapiens (Human), UniProt O75874, R132H); experiment: In vitro assay for IDH1m R132H inhibitors, IDH1 wt/IDH1 R132H heterodimer, NADPH depletion (diaphorase/resazurin); format: biochemical
# Description: The following describes the experimental procedures that can be used to obtain data on columns 2 and 4 of Table 4 and column 2 of Table 5.
# In the primary reaction, the reduction of α-KG acid to 2-HG is accompanied by a concomitant oxidation of NADPH to NADP. The amount of NADPH remaining at the end of the reaction time is measured in a secondary diaphorase/resazurin reaction in which the NADPH is consumed in a 1:1 molar ratio with the conversion of resazurin to the highly fluorescent resorufin.
# The mixture of compound, enzyme, and cofactor is pre-incubated at room temperature for 1 hr prior to the addition of alpha-ketoglutarate. To perform the secondary reaction, 10 uL of 1× buffer containing 36 μg/ml diaphorase and […] resazurin is added to the primary reaction and incubated for a further 5 minutes at 25° C. […] Compounds or compound dilutions are prepared in 100% DMSO concentration and diluted 1:50 into the final reaction. […] IC50s are determined.
# IDH1 or IDH2 wildtype (wt) and mutant heterodimers are expressed and purified by methods known in the art. […] Co-expression of IDH1wt-his and IDH1R132C-flag is carried out in sf9 insect cells. Cells (25 g) are resuspended in 250 ml of 50 mM Tirs, 500 mM NaCl, pH7.4, at 4° C. with stirring. Cells are disrupted with 4 passes through an M-Y110 Micro fluidizer (Microfluidics) set to 500 psi, and then centrifuged at 22,000 rcf for 20 min at 4° C. The supernatant is harvested and loaded at 15 cm/h on a Histrap FF 5*1 ml column (GE) which is equilibrated with 50 mM Tirs, 500 mM NaCl, pH7.4. Host cell contaminants are removed by washing the column with equilibration buffer followed by equilibration buffer containing 20 mM imidazole and 60 mM imidazole to baseline. IDH1wt-his homodimer and IDH1wt-his/IDH1R132C-flag are eluted by equilibration buffer containing 250 mM imidazole. Fractions eluted by 250 mM imidazole are pooled together and loaded at 15 cm/h onto a column pre-packed with 10 ml ANTI-FLAG® M2 Affinity Gel (Sigma), the column is equilibrated with 50 mM Tris, 500 mM NaCl, pH7.4. After washing with equilibration buffer, IDH1wt-his/IDH1R132C-flag heterodimer is eluted by equilibration buffer containing flag peptide (0.2 mg/ml). Aliquots of IDH1wt-his/IDH1R132C-flag are flash frozen in liquid N2 and stored at −80° C. Same conditions are used for the purification of IDH1wt-his/IDH1R132H-flag.
# [2] = test system: U87MG pLVX-IDH2 R140Q-neo cells; experiment: U87MG pLVX-IDH2 R140Q-neo cell based assay, 2-HG by LC-MS; conditions: Homo sapiens, U-87 MG
# IDH2 R140Q = IDH2 R140Q (Homo sapiens (Human), UniProt P48735, R140Q); experiment: In vitro assay for IDH2m R140Q inhibitors, cofactor depletion assay; format: biochemical; conditions: IDH2 R140Q enzyme
# Excerpt: The following describes the experimental procedures used to obtain data on column 7 of Table 4.
# The reaction is terminated by the addition of a second enzyme, diaphorase, and a corresponding substrate, resazurin. Diaphorase reduces resazurin to the highly fluorescent resorufin with the concomitant oxidation of NADPH to NADP, both halting the IDH2 reaction by depleting the available cofactor pool and facilitating quantitation of the amount of cofactor remaining after a specific time period through quantitative production of an easily detected fluorophore.
# The test compound is then incubated for one hour at room temperature with the enzyme; before starting the IDH2 reaction with the addition of 10 μl of substrate mix containing 4 μM NADPH and 1.6 mM α-KG in the buffer described above. After a further 16 hours of incubation at room temperature, the reaction is halted and the remaining NADPH measured through conversion of resazurin to resorufin by the addition of 25 μl Stop Mix (36 μg/ml diaphorase enzyme and 60 μM resazurin; in buffer).
# [3] = IDH1 wt/R132H heterodimer, NADPH/NADP, not saturated, read-out: IDH1 wt/R132H NADPH/NADP IC50 not saturated
# IDH1 wt/IDH1 R132H heterodimer, sequence (O75874 whole entry R132H): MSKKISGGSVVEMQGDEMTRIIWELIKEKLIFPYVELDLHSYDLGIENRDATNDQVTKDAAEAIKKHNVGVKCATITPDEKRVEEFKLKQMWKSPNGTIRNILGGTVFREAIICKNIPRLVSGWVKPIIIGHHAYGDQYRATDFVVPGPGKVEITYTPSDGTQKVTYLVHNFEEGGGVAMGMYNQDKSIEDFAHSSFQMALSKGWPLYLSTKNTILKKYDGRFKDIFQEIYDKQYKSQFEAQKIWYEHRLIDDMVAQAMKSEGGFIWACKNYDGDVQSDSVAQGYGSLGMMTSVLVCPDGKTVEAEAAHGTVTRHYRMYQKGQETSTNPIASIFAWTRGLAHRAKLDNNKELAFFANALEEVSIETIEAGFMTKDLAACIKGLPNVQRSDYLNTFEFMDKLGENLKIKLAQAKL
# IDH1 wt/IDH1 R132H heterodimer, sequence (O75874 whole entry, stated change not applied): as the sequence (O75874 whole entry R132H) above, with H132R counted along it
# IDH2 R140Q, sequence (P48735 40-452 R140Q): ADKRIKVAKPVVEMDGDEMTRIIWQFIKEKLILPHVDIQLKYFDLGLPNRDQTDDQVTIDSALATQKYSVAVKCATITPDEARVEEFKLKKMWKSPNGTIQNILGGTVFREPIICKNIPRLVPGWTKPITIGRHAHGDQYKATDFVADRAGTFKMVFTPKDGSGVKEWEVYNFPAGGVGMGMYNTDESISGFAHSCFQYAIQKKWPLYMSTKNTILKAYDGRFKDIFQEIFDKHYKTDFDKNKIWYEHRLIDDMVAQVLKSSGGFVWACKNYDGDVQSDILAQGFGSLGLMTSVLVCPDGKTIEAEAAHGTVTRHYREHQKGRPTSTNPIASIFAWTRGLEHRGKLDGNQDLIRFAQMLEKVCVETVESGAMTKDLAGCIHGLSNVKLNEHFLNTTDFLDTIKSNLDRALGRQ
Compound,"IC50 [1, 3]",also measured
COC(=O)N1CCC(Nc2nc(NC3CCC(F)(F)C3)nc(-c3cccc(C(F)(F)F)n3)n2)C1 (stereo not drawn) [Compound 59],< 50 nM,
C[C@@H](Nc1nc(NC2Cc3ccccc3C2)nc(-c2cccc(C(F)(F)F)n2)n1)C1CC1 [Compound 60],< 50 nM,
CC(C)Nc1nc(NC2CCCCC2)nc(-c2ccncc2)n1 [Compound 62],50 to 100 nM,
COCC(COC)Nc1nc(N[C@H](C)C2CC2)nc(-c2cccc(C(F)(F)F)n2)n1 [Compound 63],50 to 100 nM,
C[C@@H](Nc1nc(N[C@H](C)C2CC2)nc(-c2cccc(Cl)c2)n1)C1CC1 [Compound 64],50 to 100 nM,
C[C@@H](Nc1nc(N[C@H](C)C2CC2)nc(-c2ccc(Cl)cc2)n1)C1CC1 [Compound 65],,"IDH1 wt/R132H NADPH/NADP IC50 not saturated ([1]; IDH1 wt/R132H heterodimer, NADPH/NADP, not saturated): No Fit"
"CC(C)Nc1nc(NC2CCCOC2)nc(-c2ccccc2)n1 (stereo not drawn) [Compound 69, N^2-isopropyl-6-phenyl-N^4-(tetrahydro-2H-pyran-3-yl)-1,3,5-triazine-2,4-diamine]",,IC50 [2]: 100 to 1000 nM
C=CCCNc1nc(NCCC=C)nc(-c2ccccc2)n1 [Compound 70],,IC50 [2]: 50 to 100 nM
c1ccc(-c2nc(NC3C4COCC43)nc(NC3C4COCC43)n2)cc1 (stereo not drawn) [Compound 71],,IC50 [2]: 50 to 100 nM
"Clc1cccc(-c2nc(NC3[C@H]4COC[C@@H]34)nc(NC3[C@H]4COC[C@@H]34)n2)n1 (stereo partly drawn) [Compound 72, N^2,N^4-di((1R,5S)-3-oxabicyclo[3.1.0]hexan-6-yl)-6-(6-chloropyridin-2-yl)-1,3,5-triazine-2,4-diamine]",,IC50 (IDH2 R140Q): > 1000 nM; IC50 [2]: 50 to 100 nM
"CC(C)(C)CNc1nc(NCC(C)(C)C)nc(-c2cccc(N)n2)n1 [Compound 73, 6-(6-aminopyridin-2-yl)-N^2,N^4-dineopentyl-1,3,5-triazine-2,4-diamine]",,IC50 (IDH2 R140Q): < 50 nM; IC50 [2]: 50 to 100 nM
"CC(C)CNc1nc(NCC(C)C)nc(-c2cccc(N)n2)n1 [Compound 74, 6-(6-aminopyridin-2-yl)-N^2,N^4-diisobutyl-1,3,5-triazine-2,4-diamine]",,IC50 (IDH2 R140Q): < 50 nM; IC50 [2]: 50 to 100 nM
C[C@@H](Nc1nc(N[C@H](C)C2CC2)nc(-c2ccccn2)n1)C1CC1 [Compound 93],> 1000 nM,
C[C@@H](Nc1nc(N[C@H](C)C2CC2)nc(-c2ccccc2Cl)n1)C1CC1 [Compound 94],> 1000 nM,
C[C@@H](Nc1nc(N[C@H](C)C2CC2)nc(-c2ccncc2)n1)C1CC1 [Compound 95],> 1000 nM,
CN1CCC(Nc2nc(NC3CCC(F)(F)C3)nc(-c3cccc(C(F)(F)F)n3)n2)C1 (stereo not drawn) [Compound 96],> 1000 nM,
COCCC(C)Nc1nc(N[C@H](C)C2CC2)nc(-c2cccc(C(F)(F)F)n2)n1 (stereo partly drawn) [Compound 233],< 50 nM,
C=Cc1cccc(-c2nc(N[C@H](C)C3CC3)nc(N[C@H](C)C3CC3)n2)n1 [Compound 240],< 50 nM,
C[C@@H](Nc1nc(N[C@H](C)C2CC2)nc(-c2cccc(C#N)n2)n1)C1CC1 [Compound 269],100 to 1000 nM,
C[C@H](CO)Nc1nc(N[C@H](C)C2CC2)nc(-c2cccc(C(F)(F)F)n2)n1 [Compound 281],100 to 1000 nM,
Cc1cccc(-c2nc(NC3CCC(F)(F)CC3)nc(NC3CCC(F)(F)CC3)n2)n1 [Compound 282],100 to 1000 nM,
C#CCNc1nc(N[C@H](C)C2CC2)nc(-c2cccc(C(F)(F)F)n2)n1 [Compound 284],100 to 1000 nM,
COC(=O)CCNc1nc(N[C@H](C)C2CC2)nc(-c2cccc(C(F)(F)F)n2)n1 [Compound 286],100 to 1000 nM,
OC1CCCC1Nc1nc(NC2CCCC2O)nc(-c2cccc(Cl)n2)n1 (stereo not drawn) [Compound 290],100 to 1000 nM,

Compound,"IC50 [1, 3]",also measured
FC1(F)CCC(Nc2nc(Nc3cc4ccccc4[nH]3)nc(-c3cccc(C(F)(F)F)n3)n2)C1 (stereo not drawn) [Compound 291],100 to 1000 nM,
COc1cccc(-c2nc(N[C@H](C)C3CC3)nc(N[C@H](C)C3CC3)n2)n1 [Compound 294],100 to 1000 nM,
COCCOCC(C)Nc1nc(N[C@H](C)C2CC2)nc(-c2cccc(C(F)(F)F)n2)n1 (stereo partly drawn) [Compound 295],100 to 1000 nM,
Fc1ccc([C@H]2C[C@H](Nc3nc(N[C@H]4C[C@H](c5ccc(F)cc5)C4)nc(-c4cccc(C(F)(F)F)n4)n3)C2)cc1 [Compound 299],100 to 1000 nM,
C[C@@H](Nc1nc(N[C@H](C)C2CC2)nc(-c2cncc(C(F)(F)F)c2)n1)C1CC1 [Compound 300],100 to 1000 nM,
C[C@@H](Nc1nc(NCC(C)(C)C(N)=O)nc(-c2cccc(C(F)(F)F)n2)n1)C1CC1 [Compound 303],> 1000 nM,
Cn1ccc(-c2nc(NC3CCC(F)(F)CC3)nc(NC3CCC(F)(F)CC3)n2)n1 [Compound 304],> 1000 nM,
CC(CN1CCOCC1)Nc1nc(N[C@H](C)C2CC2)nc(-c2cccc(C(F)(F)F)n2)n1 (stereo partly drawn) [Compound 306],> 1000 nM,
C[C@@H](Nc1nc(N[C@H](C)C2CC2)nc(-c2cccc(C(N)=O)n2)n1)C1CC1 [Compound 307],> 1000 nM,
COC(=O)c1cccc(-c2nc(N[C@H](C)C3CC3)nc(N[C@H](C)C3CC3)n2)n1 [Compound 310],> 1000 nM,
Cc1cnn(-c2nc(N[C@H](C)C3CC3)nc(N[C@H](C)C3CC3)n2)c1 [Compound 312],> 1000 nM,
Fc1ccc(N2CC(Nc3nc(NC4CCC(F)(F)C4)nc(-c4cccc(C(F)(F)F)n4)n3)C2)cc1 (stereo not drawn) [Compound 313],> 1000 nM,
FC1(F)CCC(Nc2nc(NC3CCC(F)(F)CC3)nc(-c3cc(Cl)ccn3)n2)CC1 [Compound 314],> 1000 nM,
Cn1c(Nc2nc(NC3CCC(F)(F)C3)nc(-c3cccc(C(F)(F)F)n3)n2)cc2ccccc21 (stereo not drawn) [Compound 316],> 1000 nM,
C[C@@H](Nc1nc(N[C@H](C)C2CC2)nc(-c2cccc(C#N)c2)n1)C1CC1 [Compound 320],> 1000 nM,
C[C@@H](Nc1nc(N[C@H](C)C2CC2)nc(-c2cccc(OC(F)(F)F)c2)n1)C1CC1 [Compound 322],> 1000 nM,
C[C@@H](Nc1nc(N[C@H](C)C2CC2)nc(-c2ccnc(C(F)(F)F)c2)n1)C1CC1 [Compound 323],> 1000 nM,
Cc1nc(-c2nc(NC3CCC(F)(F)CC3)nc(NC3CCC(F)(F)CC3)n2)co1 [Compound 324],> 1000 nM,
C[C@@H](Nc1nc(N[C@H](C)C2CC2)nc(-c2cccc(O)n2)n1)C1CC1 [Compound 327],> 1000 nM,
Cc1cc(-c2nc(NC3CCC(F)(F)CC3)nc(NC3CCC(F)(F)CC3)n2)no1 [Compound 329],> 1000 nM,
FC1(F)CCC(Nc2nc(NC3CCC(F)(F)CC3)nc(-c3ccn[nH]3)n2)CC1 [Compound 330],> 1000 nM,
CC(CN1CCCCC1)Nc1nc(N[C@H](C)C2CC2)nc(-c2cccc(C(F)(F)F)n2)n1 (stereo partly drawn) [Compound 331],> 1000 nM,
N#CC1(c2cc(Nc3nc(NCC4CC4(F)F)nc(-c4cccc(C(F)(F)F)n4)n3)ccn2)CC1 (stereo not drawn) [Compound 362],,"IC50 ([1]; IDH1 wt/IDH1 R132H heterodimer, 300 μM NADP (saturated), read-out: IDH1 wt/R132H NADPH/NADP IC50 saturated): 50 to 100 nM; IC50 (IDH2 R140Q): < 50 nM"
